In US11780826B2 (Amgen Inc., priority 2017, dated 2023):

The molecules below were run on Bovine cardiac myofibrils (assay: In vitro model of dose-dependent myofibril ATPase modulation (AC1.4, pyruvate kinase/lactate dehydrogenase-coupled ATPase assay at pCa25)). Details: concentration at which ATPase activity was 1.4-fold higher than the bottom of the dose curve, mean of a minimum of two independent tests.
Format: biochemical
Summary of the method: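 Bovine cardiac myofibrils, detergent-treated; 0.25-1.0 mg/ml. Buffer: K-PIPES 12 mM, MgCl2 2 mM, DTT 1 mM, BSA 0.1 mg/ml, pH 6.80, 22° C; Ca2+ set by EGTA/CaCl2. ATP 1 mM, NADH/PEP-coupled, A340. 4-parameter fit; n≥2.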

**Q.** Which AC1.4 does the source give for `Cc1ccc(C(F)(F)F)cc1CNC(=O)[C@H]1CCCN1C(=O)[C@H]1CCCN(S(=O)(=O)N2CC(C#N)C2)C1` [Example 714, 1-(((3S)-1-((3-cyano-1-azetidinyl)sulfonyl)-3-piperidinyl)carbonyl)-N-(2-methyl-5-(trifluoromethyl)benzyl)-D-prolinamide] here?
**A.** The AC1.4 was 6.0545 µM.

**Q.** With `Cc1cccc(C(=O)N2CCC[C@@H]2C(=O)N[C@@H](c2ccc(C(F)(F)F)cc2F)C2CC2)c1` [Example 715, N-((R)-cyclopropyl(2-fluoro-4-(trifluoromethyl)phenyl)methyl)-1-(3-methylbenzoyl)-D-prolinamide] as the molecule, how does the AC1.4 read?
**A.** Its AC1.4 is 6.057 µM.

**Q.** How did the AC1.4 turn out when `Cc1ccc(S(N)(=O)=O)cc1C(=O)N1CCC[C@@H]1C(=O)N[C@@H](c1ccc(C(F)(F)F)cc1F)C1CC1` [Example 716, N-((R)-cyclopropyl(2-fluoro-4-(trifluoromethyl)phenyl)methyl)-1-(2-methyl-5-sulfamoylbenzoyl)-D-prolinamide] was run?
**A.** Its AC1.4 is 6.168 µM.

**Q.** How did the AC1.4 turn out when `Cc1cc(C(=O)N2[C@@H](C(=O)N[C@@H](c3cc(F)c(C(F)(F)F)cc3F)C3CC3)C[C@H]3C[C@H]32)ccn1` [Example 717, (1R,3R,5R)-N-((R)-cyclopropyl(2,5-difluoro-4-(trifluoromethyl)phenyl)methyl)-2-((2-methyl-4-pyridinyl)carbonyl)-2-azabicyclo[3.1.0]hexane-3-carboxamide] was run?
**A.** The AC1.4 was 6.259 µM.

**Q.** How did the AC1.4 turn out when `O=C(N[C@@H](c1ccc(C(F)(F)F)cc1F)C1COC1)[C@H]1C[C@H]2C[C@H]2N1C(=O)c1cc(C2CC2)ccn1` [Example 718, (1R,3R,5R)-2-((4-cyclopropyl-2-pyridinyl)carbonyl)-N-((R)-(2-fluoro-4-(trifluoromethyl)phenyl)(3-oxetanyl)methyl)-2-azabicyclo[3.1.0]hexane-3-carboxamide] was run?
**A.** The AC1.4 was 6.2625 µM.

**Q.** With `N#CC1CN(S(=O)(=O)N2CCC[C@H](C(=O)N3CCC[C@@H]3C(=O)NCc3c(F)cccc3Cl)C2)C1` [Example 719, N-(2-chloro-6-fluorobenzyl)-1-(((3S)-1-((3-cyano-1-azetidinyl)sulfonyl)-3-piperidinyl)carbonyl)-D-prolinamide] as the molecule, how does the AC1.4 read?
**A.** Its AC1.4 is 6.2628 µM.

**Q.** For `O=C(NCc1ccc(C(F)(F)F)cc1)[C@H]1CCCN1C(=O)[C@H]1CCCN(S(=O)(=O)N2CCC2Cc2ccccc2)C1` (stereo partly drawn) [Example 720, (2R)-1-((3S)-1-((2-benzylazetidin-1-yl)sulfonyl)piperidine-3-carbonyl)-N-(4-(trifluoromethyl)benzyl)pyrrolidine-2-carboxamide], which AC1.4 is on record?
**A.** The AC1.4 was 6.27 µM.

**Q.** Which AC1.4 does the source give for `CS(=O)(=O)c1cccc(C(=O)N2CCC[C@@H]2C(=O)N[C@@H](c2ccc(C(F)F)cc2F)C2CC2)c1` [Example 721, N-((R)-cyclopropyl(4-(difluoromethyl)-2-fluorophenyl)methyl)-1-(3-(methylsulfonyl)benzoyl)-D-prolinamide] here?
**A.** The AC1.4 was 6.2885 µM.

**Q.** `C[C@H](C(=O)NCc1ccnc(C(F)(F)F)c1)N(C)C(=O)c1cccc(S(=O)(=O)N2CC(C#N)C2)c1` [Example 722, 3-((3-cyano-1-azetidinyl)sulfonyl)-N-methyl-N-((1R)-1-methyl-2-oxo-2-(((2-(trifluoromethyl)-4-pyridinyl)methyl)amino)ethyl)benzamide] was tested. Which AC1.4 did it give?
**A.** Its AC1.4 is 6.3585 µM.

**Q.** How did the AC1.4 turn out when `O=C(N[C@@H](c1cc(F)c(Cl)cc1F)C1COC1)[C@H]1C[C@H](O)CN1C(=O)c1ccnc(C(F)(F)F)c1` [Example 723, (4S)-N-((R)-(4-chloro-2,5-difluorophenyl)(3-oxetanyl)methyl)-4-hydroxy-1-((2-(trifluoromethyl)-4-pyridinyl)carbonyl)-D-prolinamide] was run?
**A.** Its AC1.4 is 6.4425 µM.

**Q.** For `CS(=O)(=O)N1CCN[C@H](C(=O)N2[C@@H](C(=O)N[C@@H](c3cc(F)c(Cl)cc3F)C3CC3)C[C@H]3C[C@H]32)C1` [Example 724, (1R,3R,5R)-N-((R)-(4-chloro-2,5-difluorophenyl)(cyclopropyl)methyl)-2-(((2S)-4-(methylsulfonyl)-2-piperazinyl)carbonyl)-2-azabicyclo[3.1.0]hexane-3-carboxamide], which AC1.4 is on record?
**A.** The AC1.4 was 6.475 µM.

**Q.** `N#CC1CN(S(=O)(=O)c2cccc(C(=O)N3CCC[C@@H]3C(=O)NCc3ncc(C(F)(F)F)cn3)c2)C1` [Example 725, 1-((3-((3-cyano-1-azetidinyl)sulfonyl)phenyl)carbonyl)-N-((5-(trifluoromethyl)-2-pyrimidinyl)methyl)-D-prolinamide] was tested. Which AC1.4 did it give?
**A.** The AC1.4 was 6.507 µM.

**Q.** Which AC1.4 does the source give for `O=C(N[C@@H](c1ccc(C(F)(F)F)cc1F)C1CC1)[C@H]1CCCN1C(=O)c1cccc(-c2ccsc2)c1` [Example 726, N-((R)-cyclopropyl(2-fluoro-4-(trifluoromethyl)phenyl)methyl)-1-(3-(3-thiophenyl)benzoyl)-D-prolinamide] here?
**A.** Its AC1.4 is 6.547 µM.

**Q.** `Cc1ccc(C(=O)N2[C@@H](C(=O)N[C@@H](c3ccc(C(F)(F)F)cc3F)C3COC3)C[C@H]3C[C@H]32)cc1S(C)(=O)=O` [Example 727, (1R,3R,5R)-N-((R)-(2-fluoro-4-(trifluoromethyl)phenyl)(3-oxetanyl)methyl)-2-(4-methyl-3-(methylsulfonyl)benzoyl)-2-azabicyclo[3.1.0]hexane-3-carboxamide] was tested. Which AC1.4 did it give?
**A.** Its AC1.4 is 6.61 µM.

**Q.** Which AC1.4 does the source give for `CS(=O)(=O)c1cccc(C(=O)N2[C@@H](C(=O)N[C@@H](c3ccc(F)cc3F)C3COC3)C[C@H]3C[C@H]32)c1` [Example 728, (1R,3R,5R)-N-((R)-(2,4-difluorophenyl)(3-oxetanyl)methyl)-2-(3-(methylsulfonyl)benzoyl)-2-azabicyclo[3.1.0]hexane-3-carboxamide] here?
**A.** The AC1.4 was 6.701 µM.

**Q.** Which AC1.4 does the source give for `CC(NC(=O)[C@H]1CCCN1C(=O)[C@H]1CCCN(S(=O)(=O)N2CC(C#N)C2)C1)c1ccc(F)cc1` (stereo partly drawn) [Example 729, 1-(((3S)-1-((3-cyano-1-azetidinyl)sulfonyl)-3-piperidinyl)carbonyl)-N-((1R)-1-(4-fluorophenyl)ethyl)-D-prolinamide,1-(((3S)-1-((3-cyano-1-azetidinyl)sulfonyl)-3-piperidinyl)carbonyl)-N-((1S)-1-(4-fluorophenyl)ethyl)-D-prolinamide] here?
**A.** The AC1.4 was 6.7185 µM.

**Q.** Which AC1.4 does the source give for `CC1(O)CN(S(=O)(=O)N2CCC[C@H](C(=O)N3CCC[C@@H]3C(=O)NCc3ccc(C(F)(F)F)cc3)C2)C1` [Example 730, 1 (((3S)-1-((3-hydroxy-3-methyl-1-azetidinyl)sulfonyl)-3-piperidinyl)carbonyl)-N-(4-(trifluoromethyl)benzyl)-D-prolinamide] here?
**A.** Its AC1.4 is 6.7333 µM.

**Q.** How did the AC1.4 turn out when `CS(=O)(=O)c1cc(C(=O)N2[C@@H](C(=O)N[C@@H](c3cc(F)c(C(F)(F)F)cc3F)C3CC3)C[C@@H]3C[C@@H]32)ccn1` [Example 731, (1S,3R,5S)-N-((R)-cyclopropyl(2,5-difluoro-4-(trifluoromethyl)phenyl)methyl)-2-((2-(methylsulfonyl)-4-pyridinyl)carbonyl)-2-azabicyclo[3.1.0]hexane-3-carboxamide] was run?
**A.** The AC1.4 was 6.763 µM.

**Q.** For `CS(=O)(=O)c1cccc(C(=O)N2CC[C@H]2C(=O)N[C@@H](c2cc(F)c(Cl)cc2F)C2CC2)c1` [Example 732, (2S)-N-((R)-(4-chloro-2,5-difluorophenyl)(cyclopropyl)methyl)-1-(3-(methylsulfonyl)benzoyl)-2-azetidinecarboxamide], which AC1.4 is on record?
**A.** Its AC1.4 is 6.7885 µM.

**Q.** `N#CC1CN(S(=O)(=O)N2CCC[C@H](C(=O)N3CCC[C@@H]3C(=O)N[C@@H](CO)c3ccc(Cl)cc3)C2)C1` [Example 733, N-((1R)-1-(4-chlorophenyl)-2-hydroxyethyl)-1-(((3S)-1-((3-cyano-1-azetidinyl)sulfonyl)-3-piperidinyl)carbonyl)-D-prolinamide] was tested. Which AC1.4 did it give?
**A.** Its AC1.4 is 6.8025 µM.
